Results as given in patent publication US10131656B2, “Organic thin film transistor, method of manufacturing organic thin film transistor, organic thin film transistor material, organic thin film transistor composition, organic semiconductor film, and compound” (FUJIFILM Corporation, priority 2015, dated 2018).

Test: Evaluation of solubility to organic solvent (saturated solubility at room temperature)
Assay type: physicochemical
Conditions: room temperature (25° C.); for Solubility to organic solvent Solubility (4): saturated solubility in N,N-dimethylformamide; for Solubility to organic solvent Solubility (2): saturated solubility in chloroform; for Solubility to organic solvent Solubility (3): saturated solubility in tetrahydrofuran; for Solubility to organic solvent Solubility (1): saturated solubility in toluene
Method: 2 mg of each example compound and comparative compound obtained above were weighed, and the saturated solubility (mass %) at room temperature (25° C.) was calculated from the volume and the specific gravity of toluene, chloroform, tetrahydrofuran, and N,N-dimethylformamide. Those having 2 mass % or greater were as set as “A”, those having 1 mass % or greater and less than 2 mass % were set as “B”, those having 0.1 mass % or greater and less than 1 mass % were set as “C”, and those having less than 0.1 mass % were set as “D”. Saturated solubility (hereinafter also referred to as solubility) of each compound in toluene, chloroform, tetrahydrofuran, and N,N-dimethylformamide was presented as Solubility (1) to (4), in the evaluation results of a first table.

Compound | Solubility to organic solvent Solubility (4) | Solubility to organic solvent Solubility (2) | Solubility to organic solvent Solubility (3) | Solubility to organic solvent Solubility (1)
CCCCCCCCCCC(CCCCCCCC)CCn1c(=O)c2ccc3c4ccc5c(=O)n(CCC(CCCCCCCC)CCCCCCCCCC)c(=O)c6cc7sc8cc(c1=O)c2c3c8c7c4c56 (centres unmarked) [Comparative Compound 1] | B (those having 1 mass % or greater and less than 2 mass % were set as “B”) | A (Those having 2 mass % or greater were as set as “A”) | A (Those having 2 mass % or greater were as set as “A”) | B (those having 1 mass % or greater and less than 2 mass % were set as “B”)
S=c1c2ccc3c4ccc5c(=S)n(C6CCCCC6)c(=S)c6cc7sc8cc(c(=S)n1C1CCCCC1)c2c3c8c7c4c56 [Example Compound 3] | B (those having 1 mass % or greater and less than 2 mass % were set as “B”) | B (those having 1 mass % or greater and less than 2 mass % were set as “B”) | B (those having 1 mass % or greater and less than 2 mass % were set as “B”) | B (those having 1 mass % or greater and less than 2 mass % were set as “B”)
